Article PMC13494539 (Cell Reports Methods, 2026)

Target: CRL4^CRBN-pomalidomide-SALL4 ZF1-ZF2 (aa 378–453) ternary complex (Homo sapiens, UniProt Q96SW2+Q9UJQ4)
Conditions: presence vs absence of pomalidomide

Chain of CRL4^CRBN-pomalidomide-SALL4 ZF1-ZF2 (aa 378–453) ternary complex (Q9UJQ4 378-453 limits assumed): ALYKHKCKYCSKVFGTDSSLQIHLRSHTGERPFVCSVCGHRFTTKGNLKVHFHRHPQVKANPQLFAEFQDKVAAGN
Chain of CRL4^CRBN-pomalidomide-SALL4 ZF1-ZF2 (aa 378–453) ternary complex (Q96SW2 whole entry, the tested form may be a part): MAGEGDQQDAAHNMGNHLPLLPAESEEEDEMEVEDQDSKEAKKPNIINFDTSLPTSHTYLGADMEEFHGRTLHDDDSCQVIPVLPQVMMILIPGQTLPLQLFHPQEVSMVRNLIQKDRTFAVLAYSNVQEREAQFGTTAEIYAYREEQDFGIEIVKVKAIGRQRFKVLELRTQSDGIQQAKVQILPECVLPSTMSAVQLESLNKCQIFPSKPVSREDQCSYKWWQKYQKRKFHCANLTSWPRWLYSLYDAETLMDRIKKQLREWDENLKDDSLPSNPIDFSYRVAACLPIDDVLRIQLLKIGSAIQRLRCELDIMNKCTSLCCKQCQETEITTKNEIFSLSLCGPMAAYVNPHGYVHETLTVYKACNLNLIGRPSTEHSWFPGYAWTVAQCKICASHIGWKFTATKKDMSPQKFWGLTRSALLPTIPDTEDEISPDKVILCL
Chain of CRL4^CRBN-pomalidomide-SALL4 ZF1-ZF2 (aa 378–453) ternary complex (Q16531 whole entry partner, the tested form may be a part): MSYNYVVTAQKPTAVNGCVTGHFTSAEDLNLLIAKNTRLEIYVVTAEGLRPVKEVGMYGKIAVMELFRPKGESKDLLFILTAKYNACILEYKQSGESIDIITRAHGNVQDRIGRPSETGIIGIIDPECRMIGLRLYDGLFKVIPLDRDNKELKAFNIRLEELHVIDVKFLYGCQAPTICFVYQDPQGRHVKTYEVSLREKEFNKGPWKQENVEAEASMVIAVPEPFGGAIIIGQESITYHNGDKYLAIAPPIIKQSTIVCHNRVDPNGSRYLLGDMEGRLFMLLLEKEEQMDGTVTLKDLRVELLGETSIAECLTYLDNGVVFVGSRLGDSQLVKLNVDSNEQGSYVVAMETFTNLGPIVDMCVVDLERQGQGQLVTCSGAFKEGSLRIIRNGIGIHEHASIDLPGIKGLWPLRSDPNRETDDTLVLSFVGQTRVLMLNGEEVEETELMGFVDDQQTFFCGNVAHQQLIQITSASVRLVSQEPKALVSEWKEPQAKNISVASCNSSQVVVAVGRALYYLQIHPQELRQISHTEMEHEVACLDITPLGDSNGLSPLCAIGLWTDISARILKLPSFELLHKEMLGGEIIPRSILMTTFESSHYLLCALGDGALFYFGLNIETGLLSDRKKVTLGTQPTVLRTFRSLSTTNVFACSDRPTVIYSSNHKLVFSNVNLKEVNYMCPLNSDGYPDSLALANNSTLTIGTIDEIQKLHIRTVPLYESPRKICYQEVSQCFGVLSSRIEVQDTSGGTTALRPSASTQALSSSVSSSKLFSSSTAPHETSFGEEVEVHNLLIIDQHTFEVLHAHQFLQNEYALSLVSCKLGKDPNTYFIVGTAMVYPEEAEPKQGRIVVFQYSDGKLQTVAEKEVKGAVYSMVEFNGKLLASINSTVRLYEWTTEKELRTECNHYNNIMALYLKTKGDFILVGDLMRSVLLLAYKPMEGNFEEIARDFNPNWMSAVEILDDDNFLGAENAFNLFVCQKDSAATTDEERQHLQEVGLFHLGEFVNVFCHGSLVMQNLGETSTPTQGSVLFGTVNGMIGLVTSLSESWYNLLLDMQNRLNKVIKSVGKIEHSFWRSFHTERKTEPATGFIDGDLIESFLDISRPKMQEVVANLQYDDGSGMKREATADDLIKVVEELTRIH
Chain of CRL4^CRBN-pomalidomide-SALL4 ZF1-ZF2 (aa 378–453) ternary complex (Q13619 whole entry partner, the tested form may be a part): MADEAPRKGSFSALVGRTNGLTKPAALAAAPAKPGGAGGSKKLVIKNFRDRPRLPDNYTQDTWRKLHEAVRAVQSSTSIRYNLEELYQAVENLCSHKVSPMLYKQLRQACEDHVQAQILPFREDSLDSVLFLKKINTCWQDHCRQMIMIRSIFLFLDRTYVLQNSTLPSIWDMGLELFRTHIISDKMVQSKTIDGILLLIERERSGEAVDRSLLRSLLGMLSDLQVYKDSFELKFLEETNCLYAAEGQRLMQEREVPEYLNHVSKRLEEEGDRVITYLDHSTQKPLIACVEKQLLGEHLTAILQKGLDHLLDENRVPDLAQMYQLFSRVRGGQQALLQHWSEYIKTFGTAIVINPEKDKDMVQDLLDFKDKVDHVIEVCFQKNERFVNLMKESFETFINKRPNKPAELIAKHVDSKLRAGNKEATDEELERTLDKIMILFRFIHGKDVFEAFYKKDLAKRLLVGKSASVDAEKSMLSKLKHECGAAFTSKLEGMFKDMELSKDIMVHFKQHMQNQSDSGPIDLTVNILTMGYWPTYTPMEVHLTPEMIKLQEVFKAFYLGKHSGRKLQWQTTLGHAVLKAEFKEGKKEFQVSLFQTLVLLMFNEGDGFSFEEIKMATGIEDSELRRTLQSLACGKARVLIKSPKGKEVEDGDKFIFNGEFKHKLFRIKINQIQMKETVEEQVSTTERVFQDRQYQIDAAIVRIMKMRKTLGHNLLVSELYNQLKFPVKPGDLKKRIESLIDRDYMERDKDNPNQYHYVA
Chain of CRL4^CRBN-pomalidomide-SALL4 ZF1-ZF2 (aa 378–453) ternary complex (P62877 whole entry partner, the tested form may be a part): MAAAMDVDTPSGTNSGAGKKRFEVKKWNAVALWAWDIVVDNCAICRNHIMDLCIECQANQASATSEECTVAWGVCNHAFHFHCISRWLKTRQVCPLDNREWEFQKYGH
Chain of CRL4^CRBN-pomalidomide-SALL4 ZF1-ZF2 (aa 378–453) ternary complex (Q15843 1-76 partner limits assumed): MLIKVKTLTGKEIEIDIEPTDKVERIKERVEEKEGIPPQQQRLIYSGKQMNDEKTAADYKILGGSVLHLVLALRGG

In the case of `Nc1cccc2c1C(=O)N(C1CCC(=O)NC1=O)C2=O` (stereo not shown) [Pomalidomide], the “enhancement of SALL4 recruitment by CRL4^CRBN in the presence of pomalidomide” value is reported as “more than 10 fold”.
